From ChEMBL document CHEMBL5634077, “Recent advances in 1,2,3- and 1,2,4-triazole hybrids as antimicrobials and their SAR: A critical review” (2023)
Converted amounts (≈) assume the structure as drawn.

Columns and labels:
Format in all cases: functional
[1] = tested on: Staphylococcus epidermidis; assay: Antibacterial activity against Methicillin-sensitive Staphylococcus epidermidis assessed as bacterial growth inhibition
[2] = tested on: Staphylococcus epidermidis; assay: Antibacterial activity against Methicillin-resistant Staphylococcus epidermidis assessed as bacterial growth inhibition
Staphylococcus aureus [3] = assay: Antibacterial activity against Methicillin-resistant Staphylococcus aureus assessed as bacterial growth inhibition
Staphylococcus aureus [4] = assay: Antibacterial activity against Methicillin-sensitive Staphylococcus aureus assessed as bacterial growth inhibition
Enterococcus faecalis = assay: Antibacterial activity against Enterococcus faecalis assessed as bacterial growth inhibition
Enterococcus faecium = assay: Antibacterial activity against Enterococcus faecium assessed as inhibition of bacterial growth
Candida albicans [5] = assay: Antifungal activity against Candida albicans Y0109 assessed as reduction in fungal growth incubated for 24 hrs by NCCLS based assay
Candida albicans [6] = assay: Antifungal activity against Candida albicans SC5314 assessed as reduction in fungal growth incubated for 24 hrs by NCCLS based assay
Nakaseomyces glabratus = assay: Antifungal activity against Candida glabrata 537 assessed as reduction in fungal growth incubated for 72 hrs by NCCLS based assay
Cryptococcus neoformans = assay: Antifungal activity against Cryptococcus neoformans 32609 assessed as reduction in fungal growth incubated for 72 hrs by NCCLS based assay
Aspergillus fumigatus = assay: Antifungal activity against Aspergillus fumigatus 7544 assessed as reduction in fungal growth incubated for 5 to 7 days by NCCLS based assay; conditions: time 5-7 day
Trichophyton rubrum = assay: Antifungal activity against Trichophyton rubrum assessed as reduction in fungal growth incubated for 5 to 7 days by NCCLS based assay; conditions: time 5-7 day
Nannizzia gypsea = assay: Antifungal activity against Microsporum gypseum assessed as reduction in fungal growth incubated for 5 to 7 days by NCCLS based assay; conditions: time 5-7 day
Staphylococcus aureus [7] = assay: Antibacterial activity against Staphylococcus aureus assessed as diameter of inhibition zone incubated for 24 hrs by well diffusion assay
Bacillus subtilis [8] = assay: Antibacterial activity against Bacillus subtilis RCMB 010069 assessed as diameter of inhibition zone incubated for 24 hrs by well diffusion assay
Proteus vulgaris = assay: Antibacterial activity against Proteus vulgaris RCMB 004 assessed as diameter of inhibition zone incubated for 24 hrs by well diffusion assay
Escherichia coli = assay: Antibacterial activity against Escherichia coli RCMB 010052 assessed as diameter of inhibition zone incubated for 24 hrs by well diffusion assay
Aspergillus flavus = assay: Antifungal activity against Aspergillus flavus assessed as diameter of inhibition zone incubated for 24 hrs by well diffusion assay
Geotrichum candidum = assay: Antifungal activity against Geotrichum candidum RCMB 052006 assessed as diameter of inhibition zone incubated for 24 hrs by well diffusion assay
Pseudomonas aeruginosa = assay: Antibacterial activity against Pseudomonas aeruginosa MTCC 1034 assessed as reduction in bacterial growth
Bacillus subtilis [9] = assay: Antibacterial activity against Bacillus subtilis MTCC 441 assessed as reduction in bacterial growth

| SMILES | MIC [1] | MIC [2] | MIC (Staphylococcus aureus [3]) | MIC (Staphylococcus aureus [4]) | MIC (Enterococcus faecalis) | MIC (Enterococcus faecium) | MIC80 (Candida albicans [5]) | MIC80 (Candida albicans [6]) | MIC80 (Nakaseomyces glabratus) | MIC80 (Cryptococcus neoformans) | MIC80 (Aspergillus fumigatus) | MIC80 (Trichophyton rubrum) | MIC80 (Nannizzia gypsea) | further results |
| --- | --- | --- | --- | --- | --- | --- | --- | --- | --- | --- | --- | --- | --- | --- |
| CO/N=C1/C(=O)N(Cc2cn(CC(=O)N3CCC[C@@H]4CN(c5c(F)cc6c(=O)c(C(=O)O)cn(C7CC7)c6c5OC)C[C@@H]43)nn2)c2ccccc21 | 0.06 mg/L (≈ 0.0859 µM) | 0.06 mg/L (≈ 0.0859 µM) | 0.06 mg/L (≈ 0.0859 µM) | 0.06 mg/L (≈ 0.0859 µM) | 0.06 mg/L (≈ 0.0859 µM) | 0.06 mg/L (≈ 0.0859 µM) | – | – | – | – | – | – | – | – |
| C[C@@H](OCc1cc(-c2c(F)cc(F)cc2F)no1)[C@](O)(Cn1cncn1)c1ccc(F)cc1F | – | – | – | – | – | – | 0.062 mg/L (≈ 0.129 µM) | 0.125 mg/L (≈ 0.26 µM) | 0.125 mg/L (≈ 0.26 µM) | 1 mg/L (≈ 2.08 µM) | 4 mg/L (≈ 8.33 µM) | 2 mg/L (≈ 4.16 µM) | 1 mg/L (≈ 2.08 µM) | – |
| C[C@@H](OCc1cc(-c2cccc(F)c2F)no1)[C@](O)(Cn1cncn1)c1ccc(F)cc1F | – | – | – | – | – | – | 0.25 mg/L (≈ 0.541 µM) | 0.5 mg/L (≈ 1.08 µM) | 0.5 mg/L (≈ 1.08 µM) | 1 mg/L (≈ 2.16 µM) | 8 mg/L (≈ 17.3 µM) | 2 mg/L (≈ 4.33 µM) | 1 mg/L (≈ 2.16 µM) | – |
| Cc1ccc(-c2cc(CO[C@H](C)[C@](O)(Cn3cncn3)c3ccc(F)cc3F)on2)cc1 | – | – | – | – | – | – | 0.125 mg/L (≈ 0.284 µM) | 0.25 mg/L (≈ 0.568 µM) | 0.5 mg/L (≈ 1.14 µM) | 2 mg/L (≈ 4.54 µM) | 8 mg/L (≈ 18.2 µM) | 4 mg/L (≈ 9.08 µM) | 2 mg/L (≈ 4.54 µM) | – |
| Cc1ccccc1-c1cc(CO[C@H](C)[C@](O)(Cn2cncn2)c2ccc(F)cc2F)on1 | – | – | – | – | – | – | 0.031 mg/L (≈ 0.0704 µM) | 0.125 mg/L (≈ 0.284 µM) | 0.25 mg/L (≈ 0.568 µM) | 1 mg/L (≈ 2.27 µM) | 4 mg/L (≈ 9.08 µM) | 4 mg/L (≈ 9.08 µM) | 2 mg/L (≈ 4.54 µM) | – |
| Cc1c(-c2cc(-c3ccccn3)nc(S)n2)nnn1-c1ccc(-n2nnc(-c3cc(-c4ccccn4)nc(S)n3)c2C)cc1 | – | – | – | – | – | – | – | – | – | – | – | – | – | diameter of the inhibition zone (DIZ) (Staphylococcus aureus [7]): 23.3 mm; diameter of the inhibition zone (DIZ) (Bacillus subtilis [8]): 36.2 mm; diameter of the inhibition zone (DIZ) (Proteus vulgaris): 23.3 mm; diameter of the inhibition zone (DIZ) (Escherichia coli): 35.2 mm; diameter of the inhibition zone (DIZ) (Aspergillus flavus): 24.02 mm; diameter of the inhibition zone (DIZ) (Geotrichum candidum): 26.3 mm |
| Cc1c(C(=O)/C=C/c2ccncc2)nnn1-c1ccc(-n2nnc(C(=O)/C=C/c3ccncc3)c2C)cc1 | – | – | – | – | – | – | – | – | – | – | – | – | – | diameter of the inhibition zone (DIZ) (Staphylococcus aureus [7]): 19.2 mm; diameter of the inhibition zone (DIZ) (Bacillus subtilis [8]): 28.2 mm; diameter of the inhibition zone (DIZ) (Proteus vulgaris): 17.3 mm; diameter of the inhibition zone (DIZ) (Escherichia coli): 26.3 mm; diameter of the inhibition zone (DIZ) (Aspergillus flavus): 18.43 mm; diameter of the inhibition zone (DIZ) (Geotrichum candidum): 21.3 mm |
| Cc1c(-c2cc(-c3c[nH]c4ccccc34)nc(NN)n2)nnn1-c1ccc(-n2nnc(-c3cc(-c4c[nH]c5ccccc45)nc(NN)n3)c2C)cc1 | – | – | – | – | – | – | – | – | – | – | – | – | – | diameter of the inhibition zone (DIZ) (Staphylococcus aureus [7]): 20.9 mm; diameter of the inhibition zone (DIZ) (Bacillus subtilis [8]): 41.3 mm; diameter of the inhibition zone (DIZ) (Proteus vulgaris): 26.9 mm; diameter of the inhibition zone (DIZ) (Escherichia coli): 33.9 mm; diameter of the inhibition zone (DIZ) (Aspergillus flavus): 21.3 mm; diameter of the inhibition zone (DIZ) (Geotrichum candidum): 24.4 mm |
| C[C@@H](OCc1cc(-c2ccc(F)cc2)no1)[C@](O)(Cn1cncn1)c1ccc(F)cc1F | – | – | – | – | – | – | 0.031 mg/L (≈ 0.0698 µM) | 0.031 mg/L (≈ 0.0698 µM) | 0.125 mg/L (≈ 0.281 µM) | 0.5 mg/L (≈ 1.13 µM) | 4 mg/L (≈ 9 µM) | 1 mg/L (≈ 2.25 µM) | 0.5 mg/L (≈ 1.13 µM) | – |
| COc1c(N2C[C@H]3CCCN(C(=O)Cn4cc(CN5C(=O)C(=O)c6c(F)cccc65)nn4)[C@H]3C2)c(F)cc2c(=O)c(C(=O)O)cn(C3CC3)c12 | 0.06 mg/L (≈ 0.0873 µM) | 0.06 mg/L (≈ 0.0873 µM) | 0.06 mg/L (≈ 0.0873 µM) | 0.06 mg/L (≈ 0.0873 µM) | 0.06 mg/L (≈ 0.0873 µM) | 0.06 mg/L (≈ 0.0873 µM) | – | – | – | – | – | – | – | – |
| CO/N=C1/C(=O)N(Cc2cn(CC(=O)N3CCC[C@@H]4CN(c5c(F)cc6c(=O)c(C(=O)O)cn(C7CC7)c6c5OC)C[C@@H]43)nn2)c2cccc(F)c21 | 0.06 mg/L (≈ 0.0837 µM) | 0.06 mg/L (≈ 0.0837 µM) | 0.06 mg/L (≈ 0.0837 µM) | 0.06 mg/L (≈ 0.0837 µM) | 0.06 mg/L (≈ 0.0837 µM) | 0.06 mg/L (≈ 0.0837 µM) | – | – | – | – | – | – | – | – |
| C=CCCC1CC(=O)N1Cc1cn(-c2cccc([N+](=O)[O-])c2)nn1 (stereo not given) | – | – | – | – | – | – | – | – | – | – | – | – | – | MIC (Pseudomonas aeruginosa): 1.25 mg/L (≈ 3.82 µM); MIC (Bacillus subtilis [9]): 1.25 mg/L (≈ 3.82 µM) |
| CCO/N=C1/C(=O)N(Cc2cn(CC(=O)N3CCC[C@@H]4CN(c5c(F)cc6c(=O)c(C(=O)O)cn(C7CC7)c6c5OC)C[C@@H]43)nn2)c2cc(C)ccc21 | 0.06 mg/L (≈ 0.0826 µM) | 0.06 mg/L (≈ 0.0826 µM) | 0.06 mg/L (≈ 0.0826 µM) | 0.06 mg/L (≈ 0.0826 µM) | 0.06 mg/L (≈ 0.0826 µM) | 0.06 mg/L (≈ 0.0826 µM) | – | – | – | – | – | – | – | – |
| CCO/N=C1/C(=O)N(Cc2cn(CC(=O)N3CCC[C@@H]4CN(c5c(F)cc6c(=O)c(C(=O)O)cn(C7CC7)c6c5OC)C[C@@H]43)nn2)c2cc(F)ccc21 | 0.06 mg/L (≈ 0.0821 µM) | 0.06 mg/L (≈ 0.0821 µM) | 0.06 mg/L (≈ 0.0821 µM) | 0.06 mg/L (≈ 0.0821 µM) | 0.06 mg/L (≈ 0.0821 µM) | 0.06 mg/L (≈ 0.0821 µM) | – | – | – | – | – | – | – | – |
